Measured values as given in US6489362B1, “Carnitine supplemented diet to prevent or alleviate ascites in broiler type poultry” (The Board of Regents for Oklahoma State University, priority 1999, dated 2002).

Key:
growing broilers = details: cited from earlier work
[1] = tested on: Male Cobb-500 broiler chicks; test: Carnitine supplemented basal diets fed to broiler chicks in respiratory chambers to 14 days of age; format: in vivo, broiler type chickens; details: carnitine 200 ppm in basal diet; for Right ventricular weight (RV) / Ascites heart ratio (AHR), ratio of right ventricular mass to heart weight: 14 days of age; for Right ventricular weight (RV): control 0 ppm 0.21 ± 0.005; for Ascites heart ratio (AHR), ratio of right ventricular mass to heart weight: control 0 ppm 11.45 ± 0.24; for Hematocrit HCT: blood at week 2, control 0 ppm 36.11 ± 0.26
Description: (§1) Materials and Methods: Male Cobb-500 broiler chicks (obtained from Cobb Vantress of Siloam Springs, Ark.) were used. The chicks were divided into 24 groups of […] chicks and randomly assigned to 60 open circuit respiratory chambers in three separate rooms. The chambers were housed in 3 thermostatically controlled rooms with 24 hour fluorescent light. Two levels of carnitine (0,200 ppm) were added to the basal diets (Table 1) and examined at two oxygen levels (17 and 20.6%).
(§2) Feed and drinking water were provided for ad-libitum consumption. Chamber temperature was maintained at 30° C. the first 5 days of age and at 27.8° C. thereafter. Chambers were checked twice daily for bird mortality. Body weights of each chick were obtained on day 0, 7 and 14. Feed consumption was determined on a chamber basis at the end of 1 and 2 weeks and feed efficiency calculated. Oxygen consumption and CO2 production was recorded continuously on all chambers. Five birds at the start of the experiment were sacrificed for determination of initial composition. At the end of the experiment (Week 2) blood samples were taken from the wing vain of all birds for hematocrit determination. Heart weight and right ventricular mass of each bird were measured and the carcass saved for determination of lean and fat tissue gain using a Hologic densitometer.
Breathing Air Supply and Analysis: Compressed dried air (7% relative humidity (RH), 20.6% O2) was delivered to chicks in the chamber via polyethylene tubes. It was necessary to provide low RH air to the chick chamber in order to hold the chamber at RH below 75%. The concentration of O2 and CO2 in air exiting each bird's chamber was monitored each day using Ametek oxygen (accuracy±0.02%) and carbon dioxide (accuracy±.03%) analyzers, respectively.
Statistical Analysis: Data were analyzed using the General Linear Model procedure of SAS (SAS, 1985). When a significant F statistic was noted by ANOVA, treatment means were compared using least square analysis variance.

broilers = test: Further examples: hematocrit of broilers fed carnitine supplemented diets; format: in vivo, broiler type chickens; details: for Hematocrit HCT: control 0: 33.40
Description: as §1, with “Two levels of carnitine (0,200 ppm) were added to the basal diets (Table 1) and examined at two oxygen levels (17 and 20.6%).” left out
as §2

SMILES: C[N+](C)(C)CC(O)CC(=O)[O-] (stereo not drawn) [Carnitine, 3-hydroxy-4-N-trimethylaminobutyric acid]
- Effect on feed intake, body and abdominal fat weight, carcass or liver lipid levels (growing broilers; carnitine in poultry diet, growing broilers (Cartwright 1986)): no beneficial effect
- Ethanol metabolism in broilers (growing broilers; dietary carnitine (Smith et al. 1992)): retard ethanol metabolism
- Hatchability of eggs (growing broilers; dietary carnitine (U.S. Pat. No. 5,362,753)): increase the hatchability of eggs
- Right ventricular weight (RV) [1]: 0.20 ± 0.006 g
- Right ventricular weight (RV) ([1]; listed as carnitine): significantly decreased
- Ascites heart ratio (AHR), ratio of right ventricular mass to heart weight [1]: 10.57 ± 0.26%
- Ascites heart ratio (AHR), ratio of right ventricular mass to heart weight ([1]; listed as carnitine): significantly decreased
- Hematocrit HCT [1]: 35.41 ± 0.24%
- Hematocrit HCT ([1]; listed as carnitine): significantly decreased
- Body weight gain (Gain) ([1]; broilers to 14 days of age): 265 ± 3.1 g/b
- Gain:feed ratio ([1]; broilers to 14 days of age): 0.76 ± 0.0
- Hematocrit HCT (broilers; carnitine level 12.5 (ppm) in diet): 32.11%
- Hematocrit HCT (broilers; carnitine level 50 (ppm) in diet): 31.99%
- Hematocrit HCT (broilers; carnitine level 100 (ppm) in diet): 30.60%
- Hematocrit values, change versus unsupplemented diet (broilers; diets at 12.5, 50 and 100 ppm carnitine): beneficial and significant lowering
